Data on eleven compounds can be found in PubChem BioAssay (NCI).

SMILES strings stand for the structures.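 Each compound was tested at five concentrations against cells in 96-well plates for 48 hours. GI50: concentration for 50% inhibition of growth. TGI is the concentration that stops growth completely.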

Test systems include 786-0 renal; DU-145 prostate; HCC-2998 colon; IGROV1 ovarian; NCI-H226 lung; OVCAR-8 ovarian; PC-3 prostate; T-47D breast; UACC-62 melanoma; UO-31 renal.
Common to all, as to assay: NCI-60 cell line screen, 48 h

In the case of `O=C(Nc1ccncc1)C(=O)c1cn(S(=O)(=O)c2ccccc2F)c2ccccc12`, the GI50 was 4.95 µM in the experiment on 786-0 renal; 3.48 µM in the experiment with DU-145 prostate; 5.36 µM in the experiment with HCC-2998 colon; 3.83 µM in the experiment with IGROV1 ovarian; 6.93 µM with NCI-H226 lung; 2.7 µM in the experiment with OVCAR-8 ovarian. The GI50 in the experiment on PC-3 prostate was 2.35 µM; in the experiment with T-47D breast it was 2.53 µM; with UACC-62 melanoma, 0.708 µM; in the experiment with UO-31 renal, 3.66 µM. Besides, the TGI was 40.9 µM with 786-0 renal; 18.5 µM in the experiment with DU-145 prostate; greater than 100 µM in the experiment with HCC-2998 colon; greater than 100 µM in the experiment with IGROV1 ovarian; greater than 68.6 µM in the experiment on NCI-H226 lung; 52.4 µM in the experiment on OVCAR-8 ovarian. Also, the TGI was greater than 68.5 µM in the experiment on PC-3 prostate, greater than 87.1 µM in the experiment with T-47D breast, greater than 36.4 µM in the experiment with UACC-62 melanoma and greater than 95 µM in the experiment with UO-31 renal.
For the compound `C=C(CN1CCN(c2ccccc2F)CC1)c1ccc(C(=O)Nc2ccccc2N)cc1`, the GI50 is 1.88 µM in the experiment with 786-0 renal; 1.6 µM in the experiment with DU-145 prostate; 3.2 µM in the experiment with HCC-2998 colon; 0.571 µM with IGROV1 ovarian; 2.34 µM with NCI-H226 lung; 1.92 µM in the experiment with OVCAR-8 ovarian. Also, the GI50 in the experiment with PC-3 prostate was 1.21 µM; with T-47D breast, 3.84 µM; with UACC-62 melanoma it was 1.16 µM; in the experiment with UO-31 renal it was 1.32 µM. Besides, the TGI is greater than 100 µM with 786-0 renal; 6.06 µM in the experiment on DU-145 prostate; 17.7 µM in the experiment with HCC-2998 colon; 4.96 µM in the experiment with IGROV1 ovarian; 17.3 µM in the experiment with NCI-H226 lung; greater than 100 µM with OVCAR-8 ovarian. Besides, the TGI in the experiment on PC-3 prostate was 4.01 µM; with T-47D breast, greater than 100 µM; in the experiment with UACC-62 melanoma it was 18.3 µM; in the experiment with UO-31 renal it was 17.3 µM.
With `Cc1c(Cl)cccc1NC(=O)c1sc2nc3c(cc2c1N)CCCCCC3`, the GI50 in the experiment with 786-0 renal is 0.223 µM; with DU-145 prostate, 0.258 µM; in the experiment on HCC-2998 colon, 1.39 µM; in the experiment with IGROV1 ovarian, 0.426 µM; in the experiment on NCI-H226 lung, 1.14 µM; in the experiment with OVCAR-8 ovarian, 0.286 µM. Besides, the GI50 in the experiment with PC-3 prostate is 0.174 µM; in the experiment on T-47D breast it was 0.223 µM; in the experiment on UACC-62 melanoma it was 0.205 µM; in the experiment on UO-31 renal it was 1.51 µM. The TGI in the experiment with 786-0 renal was 14.7 µM; in the experiment with DU-145 prostate it was greater than 50 µM; with HCC-2998 colon, greater than 50 µM; in the experiment with IGROV1 ovarian, greater than 50 µM; in the experiment with NCI-H226 lung it was 25.1 µM; with OVCAR-8 ovarian, greater than 50 µM. The TGI was greater than 50 µM with PC-3 prostate, greater than 50 µM with T-47D breast, 46.6 µM in the experiment on UACC-62 melanoma and greater than 50 µM in the experiment with UO-31 renal.
Turning to `O=C(CNC(=O)c1cccc2ccccc12)Nc1ccccc1Oc1ccccc1`, the GI50 is 0.449 µM in the experiment with 786-0 renal; 0.325 µM with DU-145 prostate; 0.712 µM with HCC-2998 colon; 0.91 µM in the experiment on IGROV1 ovarian; 2.19 µM with NCI-H226 lung; 0.315 µM in the experiment on OVCAR-8 ovarian. The GI50 in the experiment on PC-3 prostate was 0.304 µM; with T-47D breast, 0.542 µM; in the experiment with UACC-62 melanoma, 0.177 µM; with UO-31 renal, 0.643 µM. Further, the TGI with 786-0 renal, in the experiment on DU-145 prostate, in the experiment with HCC-2998 colon, in the experiment on IGROV1 ovarian, in the experiment on NCI-H226 lung and in the experiment on OVCAR-8 ovarian was greater than 10 µM each time. Moreover, the TGI in the experiment with PC-3 prostate, in the experiment on T-47D breast, in the experiment with UACC-62 melanoma and in the experiment on UO-31 renal was greater than 10 µM each time.
For `CN(/N=N/c1nc(OCc2ccccc2)c2[nH]cnc2n1)C(=O)N(C)/N=N/c1nc(OCc2ccccc2)c2[nH]cnc2n1`, the GI50 in the experiment with 786-0 renal was 59.7 µM; with DU-145 prostate, 38.9 µM; with HCC-2998 colon it was 19.3 µM; with IGROV1 ovarian, 34.9 µM; in the experiment on NCI-H226 lung it was 38.5 µM; with OVCAR-8 ovarian, 51 µM. Further, the GI50 in the experiment with PC-3 prostate was 40.5 µM; with T-47D breast, 39.6 µM; in the experiment with UACC-62 melanoma it was 30.8 µM; in the experiment with UO-31 renal it was 36.1 µM. Further, the TGI in the experiment with 786-0 renal was greater than 100 µM; in the experiment with DU-145 prostate, greater than 100 µM; with HCC-2998 colon, 81.6 µM; in the experiment on IGROV1 ovarian it was greater than 100 µM; with NCI-H226 lung, greater than 100 µM; in the experiment on OVCAR-8 ovarian it was greater than 100 µM. The TGI in the experiment on PC-3 prostate, in the experiment with T-47D breast, in the experiment with UACC-62 melanoma and in the experiment on UO-31 renal was greater than 100 µM each time.
Regarding `CCOc1cc2ncc(C#N)c(Nc3ccc(F)c(Cl)c3)c2cc1NC(=O)/C=C/CN(C)C`, the GI50 is 0.339 µM in the experiment with 786-0 renal; 0.05 µM with DU-145 prostate; 1.13 µM in the experiment on HCC-2998 colon; 0.0269 µM in the experiment on IGROV1 ovarian; 0.584 µM in the experiment on NCI-H226 lung; 0.295 µM with OVCAR-8 ovarian. Further, the GI50 was 1.19 µM in the experiment on PC-3 prostate, 0.108 µM in the experiment on T-47D breast, 0.449 µM with UACC-62 melanoma and 0.046 µM with UO-31 renal. For the same compound, the TGI is 2 µM with 786-0 renal; 1.62 µM with DU-145 prostate; greater than 10 µM in the experiment on HCC-2998 colon; 0.466 µM with IGROV1 ovarian; greater than 5.01 µM in the experiment with NCI-H226 lung; greater than 9.22 µM with OVCAR-8 ovarian. Moreover, the TGI was greater than 9 µM in the experiment on PC-3 prostate, greater than 3.37 µM with T-47D breast, greater than 5.09 µM with UACC-62 melanoma and greater than 3.46 µM in the experiment with UO-31 renal.
With `CC(=O)Oc1cccc2c1C(=O)C(Br)(Br)CCC2`, the TGI is 11.4 µM in the experiment with 786-0 renal; 26.6 µM in the experiment on DU-145 prostate; 31.1 µM in the experiment with HCC-2998 colon; 30.6 µM in the experiment with IGROV1 ovarian; 20.1 µM in the experiment on NCI-H226 lung; 13 µM in the experiment with OVCAR-8 ovarian. Further, the TGI in the experiment on PC-3 prostate amounted to 16 µM; in the experiment on T-47D breast, 4.61 µM; with UACC-62 melanoma it was 20.9 µM; in the experiment with UO-31 renal, 23.2 µM.
As to `N#CSCC1CC(O)(c2ccccc2)C(c2ccccc2)C(c2ccc(F)cc2)O1` (stereo not given), the GI50 with 786-0 renal was 3.05 µM; in the experiment with DU-145 prostate, 2.16 µM; with HCC-2998 colon, 10.7 µM; in the experiment with IGROV1 ovarian it was 1.69 µM; with NCI-H226 lung, 4.89 µM; in the experiment with OVCAR-8 ovarian, 3.18 µM. Also, the GI50 with PC-3 prostate is 2.14 µM; in the experiment on T-47D breast, 3.17 µM; with UACC-62 melanoma, 1.9 µM; with UO-31 renal, 2.62 µM. In addition, the TGI in the experiment with 786-0 renal is 9.08 µM; in the experiment on DU-145 prostate, 5 µM; in the experiment on HCC-2998 colon, 23 µM; in the experiment on IGROV1 ovarian it was 7.6 µM; with NCI-H226 lung it was 16.1 µM; in the experiment on OVCAR-8 ovarian it was 11 µM. Besides, the TGI in the experiment on PC-3 prostate is 11.3 µM; in the experiment on T-47D breast, greater than 37.3 µM; with UACC-62 melanoma, 5.58 µM; in the experiment on UO-31 renal, 11.9 µM.
Consider `Cc1ccc(NC2=C(Sc3ccc(Cl)cc3)C(=O)N(Cc3ccccc3)C2=O)cc1Cl`, for which the GI50 in the experiment on 786-0 renal was 10.3 µM; in the experiment on DU-145 prostate it was 3.98 µM; in the experiment with HCC-2998 colon it was 19.6 µM; in the experiment with IGROV1 ovarian, 3.98 µM; in the experiment on NCI-H226 lung, 4.23 µM; with OVCAR-8 ovarian it was 3.98 µM. The GI50 with PC-3 prostate was 5.47 µM; in the experiment on T-47D breast it was 5.32 µM; in the experiment with UACC-62 melanoma, 13.5 µM; in the experiment on UO-31 renal, 8.73 µM. Besides, the TGI is 22.4 µM in the experiment with 786-0 renal; 24.6 µM in the experiment on DU-145 prostate; greater than 100 µM in the experiment with HCC-2998 colon; 15.3 µM with IGROV1 ovarian; 19.9 µM in the experiment with NCI-H226 lung; 34.8 µM in the experiment with OVCAR-8 ovarian. Also, the TGI in the experiment with PC-3 prostate amounted to 19.7 µM; in the experiment with T-47D breast, 66.4 µM; in the experiment with UACC-62 melanoma it was 30.5 µM; in the experiment with UO-31 renal, 22.1 µM.
In the case of `Nc1ncc(-c2ccc(C(F)(F)F)cc2)c(NC2CCCCCC2)n1`, the GI50 in the experiment on 786-0 renal was 32.2 µM; in the experiment on DU-145 prostate, 39.9 µM; in the experiment on HCC-2998 colon, 48.5 µM; in the experiment on IGROV1 ovarian, 19.5 µM; in the experiment on NCI-H226 lung, 12.9 µM; in the experiment on OVCAR-8 ovarian it was 32.5 µM. Also, the GI50 with PC-3 prostate was 25.4 µM; with T-47D breast it was 18.3 µM; in the experiment with UACC-62 melanoma, 20.4 µM; in the experiment with UO-31 renal, 13 µM. In addition, the TGI in the experiment with 786-0 renal, with DU-145 prostate, in the experiment with HCC-2998 colon, with IGROV1 ovarian, in the experiment with NCI-H226 lung and in the experiment with OVCAR-8 ovarian was greater than 100 µM each time. Besides, the TGI with PC-3 prostate, with T-47D breast, in the experiment with UACC-62 melanoma and in the experiment on UO-31 renal was greater than 100 µM each time.
`O=c1[nH]nc2c3c(cccc13)NC(CN1Cc3ccccc3C1)=N2`: the GI50 in the experiment with 786-0 renal is 6.62 µM; in the experiment on DU-145 prostate, 5 µM; with HCC-2998 colon, 4.35 µM; in the experiment on IGROV1 ovarian, 3.87 µM; in the experiment on NCI-H226 lung, 30.3 µM; with OVCAR-8 ovarian, 15 µM. Also, the GI50 with PC-3 prostate is 7.23 µM; with T-47D breast, 5.27 µM; in the experiment on UACC-62 melanoma it was 4.44 µM; in the experiment with UO-31 renal it was 4.79 µM. For the same compound, the TGI with 786-0 renal, with DU-145 prostate, in the experiment with HCC-2998 colon, with IGROV1 ovarian, with NCI-H226 lung and with OVCAR-8 ovarian was greater than 100 µM each time. In addition, the TGI in the experiment with PC-3 prostate, in the experiment with T-47D breast, in the experiment on UACC-62 melanoma and in the experiment with UO-31 renal was greater than 100 µM each time.
